Legend:
Type in all cases: cell-based
[1] = system: SW1353 cells; experiment: Mitochondrial calcium rise in SW1353 chondrocytes, IL-1β osteoarthritic model (mitochondrial aequorin); details: SW1353 cells treated with IL-1β vs control
Experimental: To test the effect of oleuropein (or oleuropein aglycone), quercetin and their combination in living cells, the inventors measured mitochondrial calcium elevation in HeLa cells. HeLa cells were purchased from ATCC. HeLa cells were seeded in 96-well plates at a density of 50000 cells per well in minimal essential medium (DMEM, Gibco), high glucose, +10% fetal calf serum. Mitochondrial calcium measurements were carried out using Hela cells infected with the adenovirus (from Sirion biotech) expressing the mitochondrially targeted calcium sensor mitochondrial mutated aequorin (Montero et al., 2004). […] Luminescence was measured at the FLIPR Tetra Aequorin (Molecular Devices). […] Calibration of the luminescence data into calcium concentration was carried out using an algorithm, as described previously (Alvarez & Montero, 2002). Custom module analysis based on Excel (Microsoft) and GraphPad Prism 7.02 (Graph Pad) software was used for quantification.
To validate the effect of the pro-inflammatory cytokine Interleukin-1β as an osteoarthritis-mimetic in a chondrocyte cellular model and to test the effect of the mitochondrial calcium uniporter (MCU) ablation on chondrocyte function, the inventors measured chondrocyte function and mitochondrial function in SW1353 cells. […]

[2] = system: SW1353 cells; experiment: Chondrocyte function by western blot (collagen-IIα1, MMP3, MMP13) in SW1353 cells; details: SW1353 cells treated with IL-1β 24 h or 48 h vs control
Experimental: To validate the effect of the pro-inflammatory cytokine Interleukin-1β as an osteoarthritis-mimetic in a chondrocyte cellular model and to test the effect of the mitochondrial calcium uniporter (MCU) ablation on chondrocyte function, the inventors measured chondrocyte function and mitochondrial function in SW1353 cells. SW1353 cells were purchased from ATCC. SW1353 cells were seeded in 96-well plates at a density of 10 000 cells per well […] (for mitochondrial calcium measurement) or at a density of 1 000 000 cells (for western blots). Cells were cultured in […] (DMEM, Gibco), high glucose, with 10% fetal calf serum and 1% Penicillin-Streptomycin.
To assess chondrocyte function, the expression of collagen-IIα1, aggrecan, metalloproteinase-3 and -13 (MMP3 and MMP13), were analyzed by western blotting. SW1353 cells were treated or not with 10 ng/ml Interleukin-1b for 24 h or 48 h. Protein extracts were prepared in an appropriate buffer containing 150 mM NaCl, 1.0% IGEPAL CA-630, 0.5% sodium deoxycholate, 0.1% SDS, 50 mM Tris, pH 8.0, Complete EDTA-free protease inhibitor mixture (Roche), 1 mM PMSF, 1 mM NaVO3, 5 mM NaF and 3 mM β-glycerophosphate and phosphatase inhibitors (Roche). 40 μg of total proteins were loaded, according to BCA quantification. Proteins were separated by SDS-PAGE electrophoresis, in commercial 4-12% acrylamide gels (Thermo Fisher Scientific) and transferred onto PVDF membranes (Thermo Fisher Scientific) by wet electrophoretic transfer. Blots were blocked 1 hour at RT with 5% bovine serum albumin (Sigma-Aldrich) in TBS-tween (0.5M Tris, 1.5M NaCl, 0.01% Tween) solution and incubated overnight at 4° C. with primary antibodies. Secondary antibodies were incubated 1 hr at RT. The following antibodies were used: anti-collagen-II al (1:1000, Abcam), anti-aggrecan (1:1000, Abcam), anti-MMP-3 (1:1000, Abcam), anti-MMP-13 (1:1000, Abcam). […] Then the content collagen-IIα1, aggrecan, MMP3 and MMP13 were quantified with densitometry and normalized on the content of GAPDH (detected with anti-GAPDH, 1:5000, Cell Signaling)

[3] = system: SW1353 cells; experiment: Cell death, Annexin-V positive cells (IncuCyte) in SW1353 cells; details: after 5 days of IL-1β treatment vs control
Experimental: To quantify the effect of Interleukin-1β on cell death in SW1353 cells, kinetic experiments of apoptosis were performed with the IncuCyte ZOOM instrument (Essen Bioscience, Ann Arbor, MI, USA). Cells were seeded at 50% confluence in 96-well-plate format in DMEM medium. After 24 h, cells were incubated with IncuCyte Annexin-V Green (4642), according to supplier's instructions and treated with IL-1β. Four images per well were collected at the indicated time using a 10× objective and bandwidth filters (Ex: 440/80 nm; Em: 504/44 nm). Data were exported as area (μm2) per well covered by Annexin-V positive objects and normalized for the total area covered by the cells.

[4] = system: SW1353 cells; experiment: Mitochondrial membrane potential (JC-10 ratio fluorescence 590/525 nm) in SW1353 cells; details: after 24 h of IL-1β vs control
Experimental: To measure mitochondrial membrane potential, SW1353 cells were seeded in 96-well plates at a density of 8000 cells per well in Growth medium (DMEM high glucose, Gibco) with 10% fetal calf serum. Then, cells were loaded with the fluorescent mitochondrial membrane potential sensor JC-10. Fluorescence was acquired with MetaXpress Confocal (Molecular Devices) at following emission wavelengths: 590 nm (excitation at 540 nm) and 525 nm (excitation 490 nm), according to supplier's instructions. The ratio fluorescence at 590 nm/525 nm is proportional to change in the mitochondrial membrane potential.

IL-1β: pro-inflammatory cytokine Interleukin-1β used as an osteoarthritis-mimetic in SW1353 chondrocytes
mitochondrial Ca2+ rise stimulated by agonist (histamine) [1]: decrease
collagen-IIα1 content [2]: strongly decreased
expression of MMP3 [2]: increased
expression of MMP13 [2]: increased
Annexin-V positive cells (cell death) [3]: significantly increased
ratio fluorescence (590/525 nm) of mitochondrial membrane potential sensor JC10 [4]: significantly decreases

From patent US20240009218A1, “COMPOSITIONS AND METHODS USING A COMBINATION OF OLEUROPEIN AND QUERCETIN FOR USE IN CARTILAGE DEGENERATION” (SOCIETE DES PRODUITS NESTLE S.A., priority 2020, published 2024)
